In PubChem BioAssay AID720625 (Broad Institute, 2013):
Inconclusive results are not listed.

Test system: HRAS cells, caspase 3/7 apoptosis luminescence, multiple timepoints
Assay: caspase 3/7 apoptosis readout in HRAS cells, mechanism study for HRAS target identification, cell-based, caspase 3/7 luminescence, plate reader, dry powder (AID 720625)

COc1ccc(N(C(=O)CCl)C(C(=O)NCCc2ccccc2)c2cccs2)cc1Cl (centres undefined)
AC40: 7.66 µM | AC40 (measured here: timepoint 1): 22.2 µM | AC40 (measured here: timepoint 2): 0.177 µM | AC40 (measured here: timepoint 3): 0.551 µM
